Where a name gives a salt, the structure may show the parent alone. Read-outs that look alike come from different tables or passages of the source.
Assays:
c-Myc/Max/Ebox DNA = target: T1, c-Myc/Max/Ebox DNA (Homo sapiens, UniProt P01106); experiment: c-Myc/Max/Ebox DNA AlphaScreen Assay; type: binding; conditions: Table 2, compounds of FIG. 1, calculated IC50 class
T1 construct: his6 (cleaved yes)
How it was run: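 Compounds were preincubated with free c-Myc (20 nM), biotinylated single-Ebox DNA (10 nM) and Ni acceptor beads before his6-Max (5 nM) and streptavidin donor beads were added. Buffer was 50 mM HEPES pH 8.0, 150 mM NaCl, BSA, Tween20, glycogen and DTT, with DMSO ≤2%. After 2 h incubation, AlphaScreen signal was read at 680 nm excitation and 520–620 nm emission.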

[1] = test system: human small lung cancer cell line H2171; experiment: Cell Viability Assay (ATPlite); type: cell-based; conditions: read-out: H2171 Activity
How it was run: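 H2171 cells were plated at 20,000 cells/mL and dosed immediately by pin transfer with a 10-point dose series in DMSO. After three days at 37° C, ATPlite luminescence served as the viability readout.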

[2] = Table 2, compounds of FIG. 1, H2171 cells, three days, ATPlite, calculated IC50 class
[3] = Homo sapiens, NCI-H2171, 72 h, Table 2, compounds of FIG. 1, H2171 cells, three days, ATPlite, calculated IC50 class

T1 sequence (P01106 whole entry): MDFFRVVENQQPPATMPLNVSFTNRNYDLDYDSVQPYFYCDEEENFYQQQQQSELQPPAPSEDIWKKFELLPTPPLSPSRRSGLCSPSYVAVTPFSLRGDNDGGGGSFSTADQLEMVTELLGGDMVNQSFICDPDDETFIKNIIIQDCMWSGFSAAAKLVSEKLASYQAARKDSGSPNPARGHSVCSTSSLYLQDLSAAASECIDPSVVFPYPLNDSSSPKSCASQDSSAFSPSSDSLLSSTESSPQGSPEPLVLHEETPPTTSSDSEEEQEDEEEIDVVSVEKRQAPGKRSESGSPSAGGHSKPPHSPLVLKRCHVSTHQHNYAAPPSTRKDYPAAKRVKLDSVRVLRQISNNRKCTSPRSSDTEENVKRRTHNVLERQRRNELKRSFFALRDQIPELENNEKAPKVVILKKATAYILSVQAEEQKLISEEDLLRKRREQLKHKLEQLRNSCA

Row | SMILES | IC50 (c-Myc/Max/Ebox DNA) [nM] | IC50 [1, 3] [nM] | other results
1 | CC(C)NCCC(=O)Nc1sc2c(c1-c1nc3cc(C(=O)Nc4cccnc4)ccc3s1)CCNC2 [Compound 510, 2-(2-(3-(Isopropylamino)propanamido)-4,5,6,7-tetrahydrothieno[2,3-c]pyridin-3-yl)-N-(pyridin-3-yl)benzo[d]thiazole-5-carboxamide] | 300 to 1000 | < 300 | 
2 | COCCNCCC(=O)Nc1sc2c(c1-c1nc3cc(-c4cccnc4)ccc3s1)CC(C)NC2C (centres unmarked) [Compound 533, N-(5,7-Dimethyl-3-(5-(pyridin-3-yl)benzo[d]thiazol-2-yl)-4,5,6,7-tetrahydrothieno[2,3-c]pyridin-2-yl)-3-((2-methoxyethyl)amino)propanamide] | 1000 to 10000 | 300 to 1000 | 
3 | CCCNCCC(=O)Nc1sc2c(c1-c1nc3ccccc3s1)CCN(C(C)C)C2 [Compound 539, N-(3-(Benzo[d]thiazol-2-yl)-6-isopropyl-4,5,6,7-tetrahydrothieno[2,3-c]pyridin-2-yl)-3-(propylamino)propanamide] | 300 to 1000 |  | IC50 [1, 2]: 300 to 1000 nM
4 | CCNCCC(=O)Nc1sc2c(c1-c1nc3ccccc3s1)CCN(C(C)C)C2 [Compound 540, N-(3-(Benzo[d]thiazol-2-yl)-6-isopropyl-4,5,6,7-tetrahydrothieno[2,3-c]pyridin-2-yl)-3-(ethylamino)propanamide] | 300 to 1000 |  | IC50 ([1]; Homo sapiens, NCI-H2171, 72 h): < 300 nM
5 | CC(C)N1CCc2c(sc(NC(=O)CCN3CCC3)c2-c2nc3ccccc3s2)C1 [Compound 541, 3-(Azetidin-1-yl)-N-(3-(benzo[d]thiazol-2-yl)-6-isopropyl-4,5,6,7-tetrahydrothieno[2,3-c]pyridin-2-yl)propanamide] | 300 to 1000 |  | IC50 ([1]; Homo sapiens, NCI-H2171, 72 h): < 300 nM
6 | CCC(C)NCCC(=O)Nc1sc2c(c1-c1nc3cc4c(cc3s1)OCO4)CCNC2 (centres unmarked) [Compound 555, N-(3-([1,3]Dioxolo[4′,5′:4,5]benzo[1,2-d]thiazol-6-yl)-4,5,6,7-tetrahydrothieno[2,3-c]pyridin-2-yl)-3-(sec-butylamino)propanamide] | < 300 | < 300 | IC50 (c-Myc/Max/Ebox DNA; listed as 116): 1000 to 10000 nM; IC50 ([1]; Table 2, compounds of FIG. 1, H2171 cells, three days, ATPlite, calculated IC50 class, listed as 116): 1000 to 10000 nM
7 | CCN(C)CCC(=O)Nc1sc2c(c1-c1nc3ccccc3s1)CCN(C(C)C)C2 [Compound 572] | 300 to 1000 | < 300 | 
8 | CC[C@@H](C)NCCC(=O)Nc1sc2c(c1-c1nc3cc(C(F)(F)F)ccc3s1)CCN(C(C)C)C2 [Compound 574, (R)-3-(sec-butylamino)-N-(6-isopropyl-3-(5-(trifluoromethyl)benzo[d]thiazol-2-yl)-4,5,6,7-tetrahydrothieno[2,3-c]pyridin-2-yl)propanamide] | < 300 | < 300 | 
9 | CC[C@H](C)NCCC(=O)Nc1sc2c(c1-c1nc3cc(-c4ccncc4)ccc3s1)CCNC2 [Compound 579, (S)-3-(sec-butylamino)-N-(3-(5-(pyridin-4-yl)benzo[d]thiazol-2-yl)-4,5,6,7-tetrahydrothieno[2,3-c]pyridin-2-yl)Propanamide] | < 300 | < 300 | 
10 | CC[C@H](C)NCCC(=O)Nc1sc2c(c1-c1nc3cc(-c4ccncc4)ccc3s1)CCN(CC)C2 [Compound 588, (S)-3-(sec-butylamino)-N-(6-ethyl-3-(5-(pyridin-4-yl)benzo[d]thiazol-2-yl)-4,5,6,7-tetrahydrothieno[2,3-c]pyridin-2-yl)propanamide] | < 300 | < 300 | 
11 | CC[C@H](C)NCCC(=O)Nc1sc2c(c1-c1nc3cc(-c4ccncc4)ccc3s1)C[C@@H](C)NC2 [Compound 589, 3-(((S)-sec-butyl)amino)-N—((R)-5-methyl-3-(5(pyridin-4-yl)benzo[d]thiazol-2-yl)-4,5,6,7-tetrahydrothieno[2,3-c]pyridin-2-yl)propanamide] | < 300 | < 300 | 
12 | Cc1ncsc1-c1ccc(CNC(=O)[C@@H]2C[C@@H](O)CN2C(=O)[C@@H](NC(=O)CCOCCOCCOCCOCCOCCOCCNCCC(=O)Nc2sc3c(c2-c2nc4ccccc4s2)CCNC3)C(C)(C)C)cc1 [Compound 591, N1-(3-(benzo[d]thiazol-2-yl)-4,5,6,7-tetrahydrothieno[2,3-c]pyridin-2-yl)-N25-((S)-1-((2S,4R)-4-hydroxy-2-((4-(4-methylthiazol-5-yl)benzyl)carbamoyl)pyrrolidin-1-yl)-3,3-dimethyl-1-oxobutan-2-yl)-7,10,13,16,19,22-hexaoxa-4-azapentacosanediamide] | > 10000 | < 300 | 

Continued, in another order:

Row | IC50 (c-Myc/Max/Ebox DNA) [nM] | IC50 [1, 3] [nM] | SMILES | other results
13 | 300 to 1000 |  | COCCNCCC(=O)Nc1sc2c(c1-c1nc3ccccc3s1)CC(C)NC2C (centres unmarked) [Compound 507, N-(3-(Benzo[d]thiazol-2-yl)-5,7-dimethyl-4,5,6,7-tetrahydrothieno[2,3-c]pyridin-2-yl)-3-((2-methoxyethyl)amino)propanamide] | IC50 [1, 2]: < 300 nM
14 | > 10000 | 300 to 1000 | COCCNCCC(=O)Nc1sc2c(c1-c1nc3cc(-c4ccncc4)ccc3s1)C[C@H](C)N[C@@H]2C [Compound 532, N-((5S,7R)-5,7-dimethyl-3-(5-(pyridin-4-yl)benzo[d]thiazol-2-yl)-4,5,6,7-tetrahydrothieno[2,3-c]pyridin-2-yl)-3-((2-methoxyethyl)amino)propanamide] | 
15 | < 300 | < 300 | CC(C)CNCCC(=O)Nc1sc2c(c1-c1nc3ccccc3s1)CCN(C(C)C)C2 [Compound 552, N-(3-(Benzo[d]thiazol-2-yl)-6-isopropyl-4,5,6,7-tetrahydrothieno[2,3-c]pyridin-2-yl)-3-(isobutylamino)propanamide] | 
16 | < 300 | < 300 | COCCNCCC(=O)Nc1sc2c(c1-c1nc3cc4c(cc3s1)OCO4)CCNC2 [Compound 556, N-(3-([1,3]Dioxolo[4′,5′:4,5]benzo[1,2-d]thiazol-6-yl)-4,5,6,7-tetrahydrothieno[2,3-c]pyridin-2-yl)-3-((2-methoxyethyl)amino)propanamide] | 
17 | < 300 | < 300 | COCCNCCC(=O)Nc1sc2c(c1-c1nc3cc(F)ccc3s1)CCN[C@@H]2C [Compound 557] | 
18 | < 300 | < 300 | CCC(C)NCCC(=O)Nc1sc2c(c1-c1nc3cc4c(cc3s1)OCO4)CCN(C(C)C)C2 (centres unmarked) [Compound 563, N-(3-([1,3]Dioxolo[4′,5′:4,5]benzo[1,2-d]thiazol-6-yl)-6-isopropyl-4,5,6,7-tetrahydrothieno[2,3-c]pyridin-2-yl)-3-(sec-butylamino)propanamide] | 
19 | < 300 | < 300 | COCCNCCC(=O)Nc1sc2c(c1-c1nc3cc(F)ccc3s1)C[C@H](C)NC2 [Compound 571] | 
20 | 300 to 1000 | 300 to 1000 | O=C(CCN[C@@H]1C[C@H]2CNC[C@H]2C1)Nc1sc2c(c1-c1nc3ccccc3s1)CCNC2 [Compound 573, N-(3-(Benzo[d]thiazol-2-yl)-4,5,6,7-tetrahydrothieno[2,3-c]pyridin-2-yl)-3-(((3aR,5s,6aS)-octahydrocyclopenta[c]pyrrol-5-yl)amino)propanamide] | 
21 | < 300 | < 300 | COCCNCCC(=O)Nc1sc2c(c1-c1nc3cc(C(F)(F)F)ccc3s1)CCN(C(C)C)C2 [Compound 575, N-(6-Isopropyl-3-(5-(trifluoromethyl)benzo[d]thiazol-2-yl)-4,5,6,7-tetrahydrothieno[2,3-c]pyridin-2-yl)-3-((2-methoxyethyl)amino) propanamide] | 
22 | < 300 | < 300 | CCC(C)NCCC(=O)Nc1sc2c(c1-c1nc3cc(C)c(C)cc3s1)CCNC2 (centres unmarked) [Compound 576, 3-(sec-Butylamino)-N-(3-(5,6-dimethylbenzo[d]thiazol-2-yl)-4,5,6,7-tetrahydrothieno[2,3-c]pyridin-2-yl)propanamide] | 
23 | > 10000 |  | CCC(C)N(C)CCC(=O)Nc1sc2c(c1-c1nc3ccccc3s1)CCN(C(C)C)C2 (centres unmarked) [Compound 577, N-(3-(benzo[d]thiazol-2-yl)-6-isopropyl-4,5,6,7 tetrahydrothieno[2,3-c]pyridin-2-yl)-3-(sec-butyl(methyl)amino)propanamide] | IC50 [1, 2]: > 10000 nM
24 | 300 to 1000 | < 300 | CC[C@H](C)NCCC(=O)Nc1sc2c(c1-c1nc3cc(C(F)(F)F)ccc3s1)CCN(C(C)C)C2 [Compound 578, (S)-3-(sec-butylamino)-N-(6-isopropyl-3-(5-(trifluoromethyl)benzo[d]thiazol-2-yl)-4,5,6,7-tetrahydrothieno[2,3-c]pyridin-2-yl)propanamide] | 
25 | < 300 | < 300 | C=Cc1cccc2sc(-c3c(NC(=O)CCNCCOC)sc4c3CCNC4)nc12 [Compound 583, 3-(2-methoxyethylamino)-N-(3-(4-vinylbenzo[d]thiazol-2-yl)-4,5,6,7-tetrahydrothieno[2,3-c]pyridin-2-yl)propanamide bis(2,2,2-trifluoroacetate)] | 
26 | < 300 | < 300 | CCC(C)NCCC(=O)Nc1sc2c(c1-c1nc3cc(-c4ccncc4)ccc3s1)CCNC2C [Compound 590, 3-(((S)-sec-butyl)amino)-N—((R)-7-methyl-3-(5-pyridin-4-yl)benzo[d]thiazol-2-yl)-4,5,6,7-tetrahydrothieno[2,3-c]pyridin-2-yl)propanamide] | 
27 | < 300 | < 300 | COCCNCCC(=O)Nc1sc2c(c1-c1nc3c(-n4cnc(C)c4)cccc3s1)CCNC2 [Compound 592, 3-((2-Methoxyethyl)amino)-N-(3-(4-(4-methyl-1H-imidazol-1-yl)benzo[d]thiazol-2-yl)-4,5,6,7-tetrahydrothieno[2,3-c]pyridin-2-yl)propanamide trihydrochloride] | 

From US10787444B2, “Compounds for the modulation of myc activity” (Syros Pharmaceuticals, Inc., priority 2015, dated 2020)
